Measured values from publication PMC6920962, “Unravelling the Skin Secretion Peptides of the Gliding Leaf Frog, Agalychnis spurrelli (Hylidae)” (Biomolecules, 2019).
Values after ≈ are worked out from the molar mass of the structure shown. Values joined by “and” are separate entries in the source; they are usually repeats but may differ in a detail not shown here. Equal entries are not always repeated. Where two headings read alike, the source gives them in different places. Marks after values point to notes of the source that are not given here. Ends that are not written are not given here.

How the values were obtained:
[1] = system: Escherichia coli ATCC 25922; parameters: method as in 6 sources, ref Cuesta et al., 2019 (41) ||| ref Charpantier, et al., 1998 (39) ||| ref Raja et al., 2013 (40) ||| ref Reimer et al., 1981 (42) ||| ref 20, 22 = [20]; PMID 17561225; doi:10.1016/j.toxicon.2007.04.017; 20. Conlon J.M. Woodhams D.C. Raza H. Coquet L. Leprince J. Jouenne T. Vaudry H. Rollins-Smith L.A. Peptides with Differential Cytolytic Activity from Skin Secretions of the Lemur Leaf Frog Hylomantis || [22]; PMID 23415652; doi:10.1016/j.biochi.2013.02.005; 22. Xi X. Li R. Jiang Y. Lin Y. Wu Y. Zhou M. Xu J. Wang L. Chen T. Shaw C. Medusins: A New Class of Antimicrobial Peptides from the Skin Secretions of Phyllomedusine Frogs Biochimie 2013 95 1288 1296 ||| ...; conditions: cited from earlier work
[2] = system: Staphylococcus aureus ATCC 25923; parameters: method as in 4 sources, ref Cuesta et al., 2019 (41) ||| ref Charpantier, et al., 1998 (39) ||| ref Raja et al., 2013 (40) ||| ref Reimer et al., 1981 (42); conditions: cited from earlier work
[3] = system: Klebsiella pneumonia clinical isolate
Procedure: (§1) For the in vitro evaluation of antimicrobial potentials of new biochemical structures identified herein, five synthetic peptides were purchased from a commercial supplier (Biomatik). Approximately 100 mg of each peptide was synthetized by Fmoc technology. […] The lyophilized peptides were kept at −20 °C and diluted in dimethyl sulfoxide (DMSO) before the antimicrobial assays, which were performed according to broth microdilution methodology detailed by Proaño et al.. Minimal inhibitory concentration of the synthetic peptides was determined against the following Gram-positive bacteria: Staphylococcus aureus ATCC 25923 and S. aureus oxacillin resistant strain; Gram-negative bacteria: Escherichia coli ATCC 25922 and Klebsiella pneumonia clinical isolate; and the opportunistic pathogenic yeast Candida albicans. Briefly, peptides were dissolved in DMSO at the following concentrations: 512, 256, 128, 64, 32, 16, 8, 4, 2, 1 […] mg/L. Each bacteria/yeast was cultured until reach log phase and then it was diluted to obtain 1 × 10^6 CFU/mL for bacteria and 1 × 10^5 CFU/mL for the yeast. Assays were prepared in 96 well sterile plates where 198 µL of each microorganism was challenged with 2 μL of the diluted peptides at the serial dilutions mentioned above. […] Another control included 200 μL of Muller Hinton broth without microorganisms to be used as blank with no growth. Seven replicates per peptide concentration was employed and experiments were performed in triplicates. […] MIC was determined as the minimal concentration of peptide required to inhibit the growth of >95% of microbial growth.

[4] = system: S. aureus Oxacillin Resistant (ORSA Strain 20)
Procedure: as §1

Candida albicans [5] = system: Candida albicans; parameters: method as in Cuesta et al., 2019 (41); conditions: broth microdilution; ref Cuesta et al., 2019 (41); cited from earlier work
Procedure: In this work, skin secretion from this amphibian was analysed by molecular cloning and tandem mass spectrometry.

Candida albicans [6] = conditions: 18 h
Procedure: as §1

[7] = system: Escherichia coli ATCC 25922; conditions: ATCC 25922, 18 h
Procedure: as §1

[8] = system: Staphylococcus aureus ATCC 25923; conditions: ATCC 25923, 18 h
Procedure: as §1

red blood cells = type: cell-based
Procedure: Aiming to determine the toxicity of frog peptides to red blood cells, in vitro assays were performed with different concentrations of each peptide. The diluted peptides (employing the same concentrations than for the antimicrobial assay described above) were incubated with a suspension of red blood cells (2%) (7.7 × 10^6 ± 0.3 × 10^6 cells/mL) at a ratio of 1:1 (v/v), in a total volume of 400 µL for 2 h at 37 °C. After the incubation period, the cells were centrifuged at 3000 rpm for 5 min and transferred to a 96 well plates. The haemolytic activity was monitored at 550 nm and was performed in triplicate. PBS and 2% (v/v) Triton X-100 were used as negative and positive controls, respectively.

P. aeruginosa = conditions: cited from earlier work
[9] = cited from earlier work
[10] = ref Charpantier, et al., 1998 (39)
[11] = broth microdilution, 1 × 10^6 CFU/mL, 37 °C 18 h, OD 600 nm, MIC = >95% growth inhibition, seven replicates, triplicate experiments
[12] = broth microdilution, ref Cuesta et al., 2019 (41)
[13] = broth microdilution, ref Cuesta et al., 2019 (41), listed as dermaseptin-2
[14] = ref Reimer et al., 1981 (42), listed as ampicillin

For “ALWKTMLKKLGTMALHAGKAALGAAADTISQGTQ [Dermaseptin-S1, dermaseptin of Phyllomedusa sauvagii]”, the “MIC E. coli ATCC 25922” value [1, 10] is listed as 46 μM and 46.00 ** μM and the “MIC S. aureus ATCC 25923” value [2, 10] is listed as 60.00 ** μM.
With “ASWKVFLKNIGKAAGKAVLNSVTDMVNQ-NH2 [Dermaseptin-SP2]” the “MIC K. pneumoniae Clinical Isolate” value ([3]; 18 h) was 10.71 µM, the “MIC K. pneumoniae Clinical Isolate” value [3, 11] was 32 µg/mL and the “MIC S. aureus Oxacillin Resistant (ORSA Strain 20)” value (“MIC S. aureus Oxacillin Resistant” below) ([4]; Oxacillin Resistant (ORSA Strain 20, 18 h)) was 2.68 µM. For the same compound, the “MIC S. aureus Oxacillin Resistant” value [4, 11] was 8 µg/mL, the “MIC S. aureus Oxacillin Resistant” value ([4]; broth microdilution, 1 × 10^6 CFU/mL, 37 °C 18 h, OD 600 nm, MIC = >95% growth inhibition, seven replicates, triplicate experiments, listed as dermaseptin-2) was 2.68 µM and the “MIC E. coli ATCC 25922” value [1, 12] was 2.68 µM. For the same compound, the “MIC E. coli ATCC 25922” value [1, 13] was 2.68 µM, the “MIC S. aureus ATCC 25923” value [2, 12] was 2.68 µM and the “MIC S. aureus ATCC 25923” value [2, 13] was 2.68 µM. The “MIC C. albicans” value (Candida albicans [5]) was 10.71 µM.
In the case of “FLSLIPHVISAIPHVVNALSNL-NH2 [Phylloseptin-SP1]”, the “MIC C. albicans” value (Candida albicans [6]) is reported as > 217.69 µM, the “MIC E. coli ATCC 25922” value [7] is reported as > 217.69 µM and the “MIC K. pneumoniae Clinical Isolate” value ([3]; 18 h) is reported as > 189.00 µM. The “MIC S. aureus ATCC 25923” value [8] was > 217.69 µM and the “Toxicity to red blood cells compared with the dermaseptins” value (red blood cells) was “greater toxicity to red blood cells than did the dermaseptins”.
For “SLRSSIKDMAAAAGRAALNAVNGIVNP-NH2 [Dermaseptin-SP5, novel dermaseptin of A. spurrelli, synthetic amidated peptide]”, the “MIC E. coli ATCC 25922” value [1, 12] is listed as 96.06 μM and 256 mg/L, the “MIC S. aureus ATCC 25923” value [2, 12] is listed as > 192.12 μM and > 512 mg/L and the “MIC C. albicans” value (Candida albicans [5]) is listed as 384.24 μM and 1024 mg/L.
For “ALWKDILKNVGKAAGKAVLNTVTDMVNQ-NH2 [Dermaseptin-B4]”, the “MIC E. coli ATCC 25922” value [1, 10] is listed as 5.00 ** μM, the “MIC S. aureus ATCC 25923” value [2, 10] is listed as 3.00 ** μM and the “MIC S. aureus ATCC 25923” value ([2]; ref Charpantier, et al., 1998 (39), listed as DRS-B4) is listed as 3 µM. For the same compound, the “MIC P. aeruginosa” value (P. aeruginosa) was 4.6 to 11.6 µM and the “Concentration at which cytotoxicity was exhibited” value [9] was 12 µM.
For “FLSLIPHIVSGVASIAKHFG [Phyloseptin-S1, phylloseptin of P. sauvagii]”, the “MIC E. coli ATCC 25922” value ([1]; ref Raja et al., 2013 (40)) is given as 70.00 *** μM and the “MIC S. aureus ATCC 25923” value ([2]; ref Raja et al., 2013 (40)) is given as 6.25 *** μM.
With “SLWSSIKDMAAAAGRAALNAVNGILNP-NH2 [Dermaseptin-SP4]” the “MIC K. pneumoniae Clinical Isolate” value ([3]; 18 h) was 189.00 µM.
For CC1(C)S[C@@H]2[C@H](NC(=O)[C@H](N)c3ccccc3)C(=O)N2[C@H]1C(=O)O [Ampicillin], the “MIC E. coli ATCC 25922” value ([1]; ref Reimer et al., 1981 (42)) is listed as 6.0 **** μM, the “MIC E. coli ATCC 25922” value [1, 14] is listed as 6 µM (≈ 2.1 µg/mL) and the “MIC S. aureus ATCC 25923” value ([2]; ref Reimer et al., 1981 (42)) is listed as 0.1 **** μM. The “MIC S. aureus ATCC 25923” value [2, 14] was 0.1 µM (≈ 0.0349 µg/mL).
With “SLWSSIKDMAAAAGRAALNAVNGIVNP-NH2 [Dermaseptin-SP3]” the “MIC K. pneumoniae Clinical Isolate” value ([3]; 18 h) was > 189.98 µM.
